Laboratory results from ChEMBL document CHEMBL5543111, “Uncovering PROTAC Sensitivity and Efficacy by Multidimensional Proteome Profiling: A Case for STAT3” (J Med Chem, 2024).
Calls of active or inactive are those of the source. No cut-off for these calls is given here.

What was measured:
Pfeiffer [1] = experiment: Antitumor activity against human Pfeiffer cells xenografted in CB-17/SCID mouse model bearing late stage of TPPRC assessed as inhibition of tumor growth at 25 to 50 mg/kg, iv measured upto 21 days; format: functional, organism-based; details: dose 25-50 mg/kg, time <= 21.0 day
[2] = target: T1, Protein cereblon/Signal transducer and activator of transcription 3 (Homo sapiens) (UniProt P40763+Q96SW2); experiment: PROTAC activity at CRBN/STAT3 in human SU-DHL-4 cells assessed as fold change in STAT3 degradation at 5 uM measured after 24 hrs; format: cell-based
T1 sequence (P40763 2-770 limits assumed): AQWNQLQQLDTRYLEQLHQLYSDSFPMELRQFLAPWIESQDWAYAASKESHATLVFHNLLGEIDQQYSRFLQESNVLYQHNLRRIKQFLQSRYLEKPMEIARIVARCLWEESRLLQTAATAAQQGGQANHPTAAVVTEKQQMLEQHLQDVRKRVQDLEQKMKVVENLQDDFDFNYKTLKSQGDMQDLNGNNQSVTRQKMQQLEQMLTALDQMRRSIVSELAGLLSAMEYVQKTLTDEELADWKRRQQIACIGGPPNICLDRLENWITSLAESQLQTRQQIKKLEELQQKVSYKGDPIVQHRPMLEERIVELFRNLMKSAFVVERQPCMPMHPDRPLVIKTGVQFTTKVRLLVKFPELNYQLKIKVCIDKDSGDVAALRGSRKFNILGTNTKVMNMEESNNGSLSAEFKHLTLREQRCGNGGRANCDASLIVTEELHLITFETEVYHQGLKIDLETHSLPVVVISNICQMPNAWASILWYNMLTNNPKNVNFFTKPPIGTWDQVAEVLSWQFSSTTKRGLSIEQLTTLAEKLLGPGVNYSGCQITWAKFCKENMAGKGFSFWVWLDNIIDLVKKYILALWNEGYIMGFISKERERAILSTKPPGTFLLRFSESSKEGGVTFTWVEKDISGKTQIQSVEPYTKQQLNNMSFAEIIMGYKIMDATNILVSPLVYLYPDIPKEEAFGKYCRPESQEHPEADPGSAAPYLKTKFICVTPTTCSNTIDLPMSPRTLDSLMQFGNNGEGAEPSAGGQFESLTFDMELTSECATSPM
T1 sequence (Q96SW2 whole entry partner): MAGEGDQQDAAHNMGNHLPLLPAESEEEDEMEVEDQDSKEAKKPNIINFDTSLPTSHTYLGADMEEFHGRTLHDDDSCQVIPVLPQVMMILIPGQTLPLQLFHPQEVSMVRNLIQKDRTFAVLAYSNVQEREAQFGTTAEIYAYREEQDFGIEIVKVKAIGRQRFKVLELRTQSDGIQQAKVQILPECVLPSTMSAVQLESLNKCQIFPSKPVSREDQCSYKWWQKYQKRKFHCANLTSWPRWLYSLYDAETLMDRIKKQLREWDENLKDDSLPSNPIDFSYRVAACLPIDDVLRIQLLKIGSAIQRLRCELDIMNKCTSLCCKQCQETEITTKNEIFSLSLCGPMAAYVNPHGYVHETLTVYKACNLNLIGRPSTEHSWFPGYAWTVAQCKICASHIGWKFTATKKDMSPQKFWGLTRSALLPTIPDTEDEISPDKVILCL

[3] = target: T2, Protein cereblon/Signal transducer and activator of transcription 2 (Homo sapiens) (UniProt Q96SW2+P52630); experiment: PROTAC activity at CRBN/STAT2 in human KARPAS-299 cells assessed as induction of STAT2 degradation at 5 to 10 uM measured after 24 hrs; format: cell-based; details: dose 5-10 µM
T2 sequence (P52630 whole entry, looked up): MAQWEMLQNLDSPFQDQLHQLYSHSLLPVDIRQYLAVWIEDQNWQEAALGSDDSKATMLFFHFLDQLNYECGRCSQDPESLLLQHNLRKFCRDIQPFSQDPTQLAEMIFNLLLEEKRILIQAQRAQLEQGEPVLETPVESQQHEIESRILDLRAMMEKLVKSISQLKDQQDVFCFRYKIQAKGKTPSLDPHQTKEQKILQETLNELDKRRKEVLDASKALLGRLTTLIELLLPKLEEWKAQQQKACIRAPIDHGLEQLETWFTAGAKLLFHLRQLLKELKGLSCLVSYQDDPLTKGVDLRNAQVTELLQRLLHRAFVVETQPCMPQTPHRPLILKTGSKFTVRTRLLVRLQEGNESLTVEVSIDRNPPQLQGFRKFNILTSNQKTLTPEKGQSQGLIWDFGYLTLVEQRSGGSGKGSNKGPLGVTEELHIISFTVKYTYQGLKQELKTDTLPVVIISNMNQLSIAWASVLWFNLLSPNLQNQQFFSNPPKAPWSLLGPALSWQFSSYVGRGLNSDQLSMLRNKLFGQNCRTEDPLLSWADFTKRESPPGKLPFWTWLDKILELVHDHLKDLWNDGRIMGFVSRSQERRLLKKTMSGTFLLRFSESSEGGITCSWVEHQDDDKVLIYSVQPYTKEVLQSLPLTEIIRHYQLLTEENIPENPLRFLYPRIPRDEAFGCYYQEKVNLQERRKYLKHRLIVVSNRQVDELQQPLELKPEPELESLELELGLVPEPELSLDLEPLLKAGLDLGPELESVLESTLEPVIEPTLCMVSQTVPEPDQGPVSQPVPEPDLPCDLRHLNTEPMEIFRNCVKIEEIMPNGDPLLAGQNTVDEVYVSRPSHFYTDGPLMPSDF
T2 sequence (Q96SW2 whole entry, looked up): as the sequence (Q96SW2 whole entry partner) above

Pfeiffer [4] = experiment: Downregulation of STAT3 expression in patient derived STAT3 high expressing human Pfeiffer cell organoids at 2 uM by Western blot analysis; format: functional, cell-based
MOLM-16 [5] = experiment: Downregulation of PCLAF expression in human MOLM16 at 5 to 10 uM measured after 24 hrs; format: functional, cell-based; details: dose 5-10 µM
Pfeiffer [6] = experiment: Downregulation of PCLAF expression in human Pfeiffer at 5 to 10 uM measured after 24 hrs; format: functional, cell-based; details: dose 5-10 µM
SUD4 [7] = experiment: Downregulation of NOP53 expression in human SU-DHL-4 at 5 to 10 uM measured after 24 hrs; format: functional, cell-based; details: dose 5-10 µM
[8] = target: T3, Protein cereblon/Signal transducer and activator of transcription 1-alpha/beta (Homo sapiens) (UniProt P42224+Q96SW2); experiment: PROTAC activity at CRBN/STAT1 in human KARPAS-299 cells assessed as induction of STAT1 degradation at 5 to 10 uM measured after 24 hrs; format: cell-based; details: dose 5-10 µM
[9] = Toxicity in CB-17/SCID mouse bearing late stage of TPPRC assessed as effect on body weight at 25 to 50 mg/kg, iv measured after 21 days; format: organism-based; details: in vivo, 504 h, dose 25-50 mg/kg, time 21 day
[10] = target: T4, Protein cereblon/Signal transducer and activator of transcription 6 (Homo sapiens) (UniProt P42226+Q96SW2); experiment: PROTAC activity at CRBN/STAT6 in human KARPAS-299 cells assessed as induction of STAT6 degradation at 5 to 10 uM measured after 24 hrs; format: cell-based; details: dose 5-10 µM
T4 sequence (P42226 2-847 limits assumed): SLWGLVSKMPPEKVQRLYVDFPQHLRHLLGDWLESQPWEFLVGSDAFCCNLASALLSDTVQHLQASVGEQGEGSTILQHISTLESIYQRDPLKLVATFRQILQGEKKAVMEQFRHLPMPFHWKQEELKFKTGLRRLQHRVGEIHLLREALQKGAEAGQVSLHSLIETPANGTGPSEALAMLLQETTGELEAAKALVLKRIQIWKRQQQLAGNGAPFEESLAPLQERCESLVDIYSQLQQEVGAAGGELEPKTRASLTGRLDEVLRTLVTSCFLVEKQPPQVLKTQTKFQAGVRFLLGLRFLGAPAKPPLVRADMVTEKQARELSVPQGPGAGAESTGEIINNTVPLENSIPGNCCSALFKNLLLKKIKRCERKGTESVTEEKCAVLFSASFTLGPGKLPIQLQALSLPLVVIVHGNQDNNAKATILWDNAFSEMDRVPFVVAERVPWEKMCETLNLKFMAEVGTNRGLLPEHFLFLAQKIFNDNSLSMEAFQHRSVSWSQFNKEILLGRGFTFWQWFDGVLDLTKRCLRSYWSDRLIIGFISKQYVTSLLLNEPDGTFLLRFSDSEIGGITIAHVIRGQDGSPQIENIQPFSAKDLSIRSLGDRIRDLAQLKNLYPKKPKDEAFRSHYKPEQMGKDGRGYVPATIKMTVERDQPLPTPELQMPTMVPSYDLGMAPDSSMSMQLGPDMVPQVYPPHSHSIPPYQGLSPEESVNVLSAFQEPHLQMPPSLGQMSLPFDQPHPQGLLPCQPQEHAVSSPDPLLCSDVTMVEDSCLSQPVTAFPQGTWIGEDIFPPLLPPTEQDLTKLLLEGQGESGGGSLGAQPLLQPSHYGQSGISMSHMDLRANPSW
T4 sequence (Q96SW2 whole entry partner): as the sequence (Q96SW2 whole entry partner) above

KARPAS-299 [11] = experiment: Downregulation of PCLAF expression in human KARPAS-299 at 5 to 10 uM measured after 24 hrs; format: functional, cell-based; details: dose 5-10 µM
[12] = target: T5, Protein cereblon/Signal transducer and activator of transcription 5A (Homo sapiens) (UniProt P42229+Q96SW2); experiment: PROTAC activity at CRBN/STAT5A in human DB cells assessed as induction of STAT5A degradation at 5 to 10 uM measured after 24 hrs; format: cell-based; details: dose 5-10 µM
T5 sequence (P42229 whole entry, looked up): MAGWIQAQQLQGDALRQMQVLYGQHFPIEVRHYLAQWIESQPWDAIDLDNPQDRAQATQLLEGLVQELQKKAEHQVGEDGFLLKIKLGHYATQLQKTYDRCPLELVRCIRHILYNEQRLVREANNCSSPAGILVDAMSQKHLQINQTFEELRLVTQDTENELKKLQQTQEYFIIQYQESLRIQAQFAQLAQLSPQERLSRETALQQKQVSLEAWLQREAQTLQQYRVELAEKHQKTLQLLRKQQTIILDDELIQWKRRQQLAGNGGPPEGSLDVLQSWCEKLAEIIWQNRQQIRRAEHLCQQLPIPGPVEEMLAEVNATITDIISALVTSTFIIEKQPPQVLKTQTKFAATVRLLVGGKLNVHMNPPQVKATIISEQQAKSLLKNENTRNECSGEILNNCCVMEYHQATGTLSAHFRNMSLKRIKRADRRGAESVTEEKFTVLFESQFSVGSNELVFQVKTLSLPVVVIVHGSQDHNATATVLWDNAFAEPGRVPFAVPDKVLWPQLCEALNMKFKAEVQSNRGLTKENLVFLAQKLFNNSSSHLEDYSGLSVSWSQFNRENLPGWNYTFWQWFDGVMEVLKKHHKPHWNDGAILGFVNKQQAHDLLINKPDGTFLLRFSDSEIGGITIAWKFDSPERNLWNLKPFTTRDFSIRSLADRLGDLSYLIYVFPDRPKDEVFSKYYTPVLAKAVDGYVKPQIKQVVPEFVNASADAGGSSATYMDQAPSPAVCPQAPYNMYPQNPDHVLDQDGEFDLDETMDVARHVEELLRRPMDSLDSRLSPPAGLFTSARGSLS
T5 sequence (Q96SW2 whole entry, looked up): as the sequence (Q96SW2 whole entry partner) above

[13] = target: T1, Protein cereblon/Signal transducer and activator of transcription 3 (Homo sapiens); experiment: PROTAC activity at CRBN/STAT3 in human SU-DHL-4 cells assessed as induction of STAT3 degradation at 5 uM measured after 3 hrs; format: cell-based
Pfeiffer [14] = experiment: Downregulation of STAT3 expression in patient derived STAT3 low expressing human Pfeiffer cell organoids at 2 uM by Western blot analysis; format: functional, cell-based
Mus musculus [15] = experiment: In vivo PROTAC activity at human Pfeiffer cells xenografted in CB-17/SCID mouse model bearing late stage of TPPRC assessed as degradation of STAT3 at administered as IV dose; format: functional, organism-based; details: dose 25-50 mg/kg
[16] = target: T1, Protein cereblon/Signal transducer and activator of transcription 3 (Homo sapiens); experiment: PROTAC activity at CRBN/STAT3 in human KARPAS-299 cells assessed as fold change in STAT3 degradation at 5 uM measured after 24 hrs; format: cell-based
[17] = target: T1, Protein cereblon/Signal transducer and activator of transcription 3 (Homo sapiens); experiment: PROTAC activity at CRBN/STAT3 in human KARPAS-299 cells assessed as induction of STAT3 degradation at 5 uM measured after 3 hrs; format: cell-based
[18] = target: T1, Protein cereblon/Signal transducer and activator of transcription 3 (Homo sapiens); experiment: PROTAC activity at CRBN/STAT3 in human DB cells assessed as induction of STAT3 degradation at 5 uM measured after 3 hrs; format: cell-based
[19] = target: T1, Protein cereblon/Signal transducer and activator of transcription 3 (Homo sapiens); experiment: PROTAC activity at CRBN/STAT3 in human MOLM16 cells assessed as induction of STAT3 degradation at 5 uM measured after 3 hrs; format: cell-based
DB [20] = experiment: Downregulation of PCLAF expression in human DB at 5 to 10 uM measured after 24 hrs; format: functional, cell-based; details: dose 5-10 µM
[21] = target: T1, Protein cereblon/Signal transducer and activator of transcription 3 (Homo sapiens); experiment: PROTAC activity at CRBN/STAT3 in human SUPM2 cells assessed as fold change in STAT3 degradation at 5 uM measured after 24 hrs; format: cell-based
[22] = target: T1, Protein cereblon/Signal transducer and activator of transcription 3 (Homo sapiens); experiment: PROTAC activity at CRBN/STAT3 in human MOLM16 cells assessed as fold change in STAT3 degradation at 5 uM measured after 24 hrs; format: cell-based
[23] = target: T6, Protein cereblon/Signal transducer and activator of transcription 5B (Homo sapiens) (UniProt P51692+Q96SW2); experiment: PROTAC activity at CRBN/STAT5B in human KARPAS-299 cells assessed as induction of STAT5B degradation at 5 to 10 uM measured after 24 hrs; format: cell-based; details: dose 5-10 µM
T6 sequence (P51692 whole entry, looked up): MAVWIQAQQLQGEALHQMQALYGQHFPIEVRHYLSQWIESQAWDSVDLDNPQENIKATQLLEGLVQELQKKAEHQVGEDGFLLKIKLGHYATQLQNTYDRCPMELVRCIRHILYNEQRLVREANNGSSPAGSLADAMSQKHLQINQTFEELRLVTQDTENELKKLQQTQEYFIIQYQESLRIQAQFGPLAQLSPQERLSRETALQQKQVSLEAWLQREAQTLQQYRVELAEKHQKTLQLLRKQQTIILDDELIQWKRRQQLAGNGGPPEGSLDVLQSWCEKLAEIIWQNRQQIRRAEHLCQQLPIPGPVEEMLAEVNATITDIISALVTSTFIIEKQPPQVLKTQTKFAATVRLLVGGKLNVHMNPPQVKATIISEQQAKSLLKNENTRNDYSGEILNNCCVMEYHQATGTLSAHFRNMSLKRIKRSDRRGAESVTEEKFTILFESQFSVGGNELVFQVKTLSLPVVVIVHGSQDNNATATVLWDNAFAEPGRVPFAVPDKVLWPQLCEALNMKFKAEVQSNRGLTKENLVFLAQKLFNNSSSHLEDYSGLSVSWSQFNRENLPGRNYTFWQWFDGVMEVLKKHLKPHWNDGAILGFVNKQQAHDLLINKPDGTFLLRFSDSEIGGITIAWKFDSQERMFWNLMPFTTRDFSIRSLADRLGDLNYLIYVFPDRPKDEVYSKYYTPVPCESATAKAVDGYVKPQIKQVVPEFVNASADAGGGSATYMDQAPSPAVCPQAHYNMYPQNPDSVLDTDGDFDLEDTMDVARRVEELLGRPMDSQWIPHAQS
T6 sequence (Q96SW2 whole entry, looked up): as the sequence (Q96SW2 whole entry partner) above

SUP-M2 [24] = experiment: Downregulation of NOP53 expression in human SUPM2 at 5 to 10 uM measured after 24 hrs; format: functional, cell-based; details: dose 5-10 µM
[25] = target: T1, Protein cereblon/Signal transducer and activator of transcription 3 (Homo sapiens); experiment: PROTAC activity at CRBN/STAT3 in human DB cells assessed as induction of STAT3 degradation at 5 to 10 uM measured after 24 hrs; format: cell-based; details: dose 5-10 µM
[26] = target: T5, Protein cereblon/Signal transducer and activator of transcription 5A (Homo sapiens); experiment: PROTAC activity at CRBN/STAT5A in human KARPAS-299 cells assessed as induction of STAT5A degradation at 5 to 10 uM measured after 24 hrs; format: cell-based; details: dose 5-10 µM
[27] = target: T4, Protein cereblon/Signal transducer and activator of transcription 6 (Homo sapiens); experiment: PROTAC activity at CRBN/STAT6 in human DB cells assessed as induction of STAT6 degradation at 5 to 10 uM measured after 24 hrs; format: cell-based; details: dose 5-10 µM
[28] = target: T1, Protein cereblon/Signal transducer and activator of transcription 3 (Homo sapiens); experiment: PROTAC activity at CRBN/STAT3 in human KARPAS-299 cells assessed as induction of STAT3 degradation at 5 to 10 uM measured after 24 hrs; format: cell-based; details: dose 5-10 µM
[29] = target: T1, Protein cereblon/Signal transducer and activator of transcription 3 (Homo sapiens); experiment: PROTAC activity at CRBN/STAT3 in human DB cells assessed as fold change in STAT3 degradation at 5 uM measured after 24 hrs; format: cell-based
[30] = target: T6, Protein cereblon/Signal transducer and activator of transcription 5B (Homo sapiens); experiment: PROTAC activity at CRBN/STAT5B in human DB cells assessed as induction of STAT5B degradation at 5 to 10 uM measured after 24 hrs; format: cell-based; details: dose 5-10 µM
Pfeiffer [31] = experiment: Cytotoxicity against human Pfeiffer cells harbouring STAT3 assessed as reduction in cell viability at 2 uM measured after 3 days by CCK- method; format: functional, cell-based; details: time 3.0 day
MOLM-16 [32] = experiment: Downregulation of NOP53 expression in human MOLM16 at 5 to 10 uM measured after 24 hrs; format: functional, cell-based; details: dose 5-10 µM
Pfeiffer [33] = experiment: Downregulation of NOP53 expression in human Pfeiffer at 5 to 10 uM measured after 24 hrs; format: functional, cell-based; details: dose 5-10 µM
SUP-M2 [34] = experiment: Downregulation of PCLAF expression in human SUPM2 at 5 to 10 uM measured after 24 hrs; format: functional, cell-based; details: dose 5-10 µM
Pfeiffer [35] = experiment: Cytotoxicity against human Pfeiffer cells harbouring STAT1 assessed as reduction in cell viability measured after 3 days by CCK- method; format: functional, cell-based; details: time 3.0 day
KARPAS-299 [36] = experiment: Downregulation of NOP53 expression in human KARPAS-299 at 5 to 10 uM measured after 24 hrs; format: functional, cell-based; details: dose 5-10 µM
[37] = target: T1, Protein cereblon/Signal transducer and activator of transcription 3 (Homo sapiens); experiment: PROTAC activity at CRBN/STAT3 in human Pfeiffer cells assessed as fold change in STAT3 degradation at 5 uM measured after 24 hrs; format: cell-based
Mus musculus [38] = experiment: In vivo PROTAC activity at CRBN/STAT1 in human Pfeiffer cells xenografted in CB-17/SCID mouse model bearing last stage of TPPRC assessed as upregulation of STAT1 by measuring fold change; format: functional
Mus musculus [39] = experiment: In vivo PROTAC activity at CRBN/STAT1 in human Pfeiffer cells xenografted in CB-17/SCID mouse model bearing middle stage of TPPRC assessed as upregulation of STAT1 by measuring fold change; format: functional
[40] = target: T1, Protein cereblon/Signal transducer and activator of transcription 3 (Homo sapiens); experiment: PROTAC activity at CRBN/STAT3 in human SUPM2 cells assessed as induction of STAT3 degradation at 5 uM measured after 3 hrs; format: cell-based
[41] = target: T2, Protein cereblon/Signal transducer and activator of transcription 2 (Homo sapiens); experiment: PROTAC activity at CRBN/STAT2 in human DB cells assessed as induction of STAT2 degradation at 5 to 10 uM measured after 24 hrs; format: cell-based; details: dose 5-10 µM
Pfeiffer [42] = experiment: Downregulation of STAT1 expression in patient derived STAT1 high expressing human Pfeiffer cell organoids at 2 uM by Western blot analysis; format: functional, cell-based
[43] = target: T3, Protein cereblon/Signal transducer and activator of transcription 1-alpha/beta (Homo sapiens); experiment: PROTAC activity at CRBN/STAT1 in human DB cells assessed as induction of STAT1 degradation at 5 to 10 uM measured after 24 hrs; format: cell-based; details: dose 5-10 µM
DB [44] = experiment: Downregulation of NOP53 expression in human DB at 5 to 10 uM measured after 24 hrs; format: functional, cell-based; details: dose 5-10 µM
SUD4 [45] = experiment: Downregulation of PCLAF expression in human SU-DHL-4 at 5 to 10 uM measured after 24 hrs; format: functional, cell-based; details: dose 5-10 µM
[46] = target: T1, Protein cereblon/Signal transducer and activator of transcription 3 (Homo sapiens); experiment: PROTAC activity at CRBN/STAT3 in human Pfeiffer cells assessed as induction of STAT3 degradation at 5 uM measured after 3 hrs; format: cell-based

## NC(=O)CC[C@H](NC(=O)[C@@H]1CC[C@@H]2CCN(C(=O)CCCCCC#Cc3cccc4c3CN(C3CCC(=O)NC3=O)C4=O)C[C@H](NC(=O)c3cc4cc(C(F)(F)P(=O)(O)O)ccc4[nH]3)C(=O)N21)C(=O)NC(c1ccccc1)c1ccccc1 (stereo partly specified)
Pfeiffer [1]
  Activity: Active
[2]
  fold change (FC): 0.66
[3]
  Activity: inactive
Pfeiffer [4]
  Activity: Active
MOLM-16 [5]
  Activity: Active
Pfeiffer [6]
  Activity: inactive
SUD4 [7]
  Activity: inactive
[8]
  Activity: inactive
[9]
  Activity: Non-Toxic
[10]
  Activity: inactive
KARPAS-299 [11]
  Activity: Active
[12]
  Activity: inactive
[13]
  Activity: Active
Pfeiffer [14]
  Activity: Active
Mus musculus [15]
  Activity: Dose-Dependent Effect
[16]
  fold change (FC): 0.66
[17]
  Activity: Active
[18]
  Activity: Active
[19]
  Activity: Active
DB [20]
  Activity: inactive
[21]
  fold change (FC): 0.66
[22]
  fold change (FC): 0.66
[23]
  Activity: inactive
SUP-M2 [24]
  Activity: Active
[25]
  Activity: Active
[26]
  Activity: inactive
[27]
  Activity: inactive
[28]
  Activity: Active
[29]
  fold change (FC): 0.66
[30]
  Activity: inactive
Pfeiffer [31]
  Activity: Active
MOLM-16 [32]
  Activity: Active
Pfeiffer [33]
  Activity: inactive
SUP-M2 [34]
  Activity: Active
Pfeiffer [35]
  Activity: Active
KARPAS-299 [36]
  Activity: Active
[37]
  fold change (FC): 0.66
Mus musculus [38]
  fold change (FC): >3.5
Mus musculus [39]
  fold change (FC): >3.5
[40]
  Activity: Active
[41]
  Activity: inactive
Pfeiffer [42]
  Activity: Active
[43]
  Activity: inactive
DB [44]
  Activity: inactive
SUD4 [45]
  Activity: inactive
[46]
  Activity: Active
